Experimental data reported in ChEMBL document CHEMBL4680147, “Discovery of 6'-chloro-N-methyl-5'-(phenylsulfonamido)-[3,3'-bipyridine]-5-carboxamide (CHMFL-PI4K-127) as a novel Plasmodium falciparum PI(4)K inhibitor with potent antimalarial activity against both blood and liver stages of Plasmodium” (Eur J Med Chem, 2020).

What was measured:
Plasmodium falciparum [1] = test: Antimalarial activity against sulphadoxine-resistant blood stage Plasmodium falciparum 3D7 infected in human O+ erythrocytes incubated for 72 hrs by SYBR Green 1 dye based fluorescence assay; assay type: functional, organism-based; details: 3D7, Erythrocyte
[2] = Inhibition of recombinant His-tagged Plasmodium falciparum 3D7 PI4K expressed in baculovirus infected Sf9 cells using PI:PS as substrate incubated for 1 hr in presence of ATP by ADP-Glo kinase assay
Plasmodium falciparum [3] = test: Antimalarial activity against mefloquine/chloroquine/pyrimethamine resistant Plasmodium falciparum Dd2 infected in human O+ erythrocytes incubated for 72 hrs by SYBR Green 1 dye based fluorescence assay; assay type: functional, organism-based; details: Dd2, Erythrocyte
[4] = biological target: Phosphatidylinositol 4,5-bisphosphate 3-kinase catalytic subunit alpha isoform (Homo sapiens, UniProt P42336); test: Inhibition of human PI3Kalpha by ADP-Glo kinase assay
[5] = biological target: Phosphatidylinositol 4,5-bisphosphate 3-kinase catalytic subunit beta isoform (Homo sapiens, UniProt P42338); test: Inhibition of human PI3Kbeta by ADP-Glo kinase assay
Chain of Phosphatidylinositol 4,5-bisphosphate 3-kinase catalytic subunit beta isoform (P42338 whole entry, canonical isoform): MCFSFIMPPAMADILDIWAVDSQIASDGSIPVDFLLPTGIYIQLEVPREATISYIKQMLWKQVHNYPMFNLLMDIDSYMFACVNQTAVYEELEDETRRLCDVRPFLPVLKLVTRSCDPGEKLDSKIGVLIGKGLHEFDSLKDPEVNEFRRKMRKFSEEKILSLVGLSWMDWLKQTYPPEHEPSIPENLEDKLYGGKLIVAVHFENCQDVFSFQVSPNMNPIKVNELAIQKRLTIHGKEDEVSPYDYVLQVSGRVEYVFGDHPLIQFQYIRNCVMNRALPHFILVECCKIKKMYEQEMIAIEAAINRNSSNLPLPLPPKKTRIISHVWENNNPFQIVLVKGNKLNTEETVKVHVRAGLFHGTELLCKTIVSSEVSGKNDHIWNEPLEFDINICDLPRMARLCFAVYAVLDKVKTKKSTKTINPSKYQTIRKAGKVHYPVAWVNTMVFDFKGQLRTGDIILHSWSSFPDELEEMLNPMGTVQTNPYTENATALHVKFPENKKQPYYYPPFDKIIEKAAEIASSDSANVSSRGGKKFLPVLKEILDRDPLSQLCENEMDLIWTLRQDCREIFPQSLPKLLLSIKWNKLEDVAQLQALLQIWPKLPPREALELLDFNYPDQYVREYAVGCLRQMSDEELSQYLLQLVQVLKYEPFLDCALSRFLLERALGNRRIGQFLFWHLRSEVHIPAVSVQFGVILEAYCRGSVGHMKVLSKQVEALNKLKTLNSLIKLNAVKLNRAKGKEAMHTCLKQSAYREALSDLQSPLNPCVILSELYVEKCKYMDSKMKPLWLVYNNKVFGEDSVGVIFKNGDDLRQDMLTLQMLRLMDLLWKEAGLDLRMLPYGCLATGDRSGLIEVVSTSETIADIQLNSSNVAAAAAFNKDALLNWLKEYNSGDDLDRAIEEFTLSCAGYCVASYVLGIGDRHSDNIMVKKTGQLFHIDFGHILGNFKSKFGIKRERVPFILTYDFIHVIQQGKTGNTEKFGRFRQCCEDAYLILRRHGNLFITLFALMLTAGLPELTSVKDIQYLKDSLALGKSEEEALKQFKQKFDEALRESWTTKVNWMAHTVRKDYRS

[6] = biological target: T1, Phosphatidylinositol 4,5-bisphosphate 3-kinase catalytic subunit delta isoform (Homo sapiens, UniProt O00329); test: Inhibition of human PI3Kdelta by ADP-Glo kinase assay
T1 sequence (O00329 whole entry): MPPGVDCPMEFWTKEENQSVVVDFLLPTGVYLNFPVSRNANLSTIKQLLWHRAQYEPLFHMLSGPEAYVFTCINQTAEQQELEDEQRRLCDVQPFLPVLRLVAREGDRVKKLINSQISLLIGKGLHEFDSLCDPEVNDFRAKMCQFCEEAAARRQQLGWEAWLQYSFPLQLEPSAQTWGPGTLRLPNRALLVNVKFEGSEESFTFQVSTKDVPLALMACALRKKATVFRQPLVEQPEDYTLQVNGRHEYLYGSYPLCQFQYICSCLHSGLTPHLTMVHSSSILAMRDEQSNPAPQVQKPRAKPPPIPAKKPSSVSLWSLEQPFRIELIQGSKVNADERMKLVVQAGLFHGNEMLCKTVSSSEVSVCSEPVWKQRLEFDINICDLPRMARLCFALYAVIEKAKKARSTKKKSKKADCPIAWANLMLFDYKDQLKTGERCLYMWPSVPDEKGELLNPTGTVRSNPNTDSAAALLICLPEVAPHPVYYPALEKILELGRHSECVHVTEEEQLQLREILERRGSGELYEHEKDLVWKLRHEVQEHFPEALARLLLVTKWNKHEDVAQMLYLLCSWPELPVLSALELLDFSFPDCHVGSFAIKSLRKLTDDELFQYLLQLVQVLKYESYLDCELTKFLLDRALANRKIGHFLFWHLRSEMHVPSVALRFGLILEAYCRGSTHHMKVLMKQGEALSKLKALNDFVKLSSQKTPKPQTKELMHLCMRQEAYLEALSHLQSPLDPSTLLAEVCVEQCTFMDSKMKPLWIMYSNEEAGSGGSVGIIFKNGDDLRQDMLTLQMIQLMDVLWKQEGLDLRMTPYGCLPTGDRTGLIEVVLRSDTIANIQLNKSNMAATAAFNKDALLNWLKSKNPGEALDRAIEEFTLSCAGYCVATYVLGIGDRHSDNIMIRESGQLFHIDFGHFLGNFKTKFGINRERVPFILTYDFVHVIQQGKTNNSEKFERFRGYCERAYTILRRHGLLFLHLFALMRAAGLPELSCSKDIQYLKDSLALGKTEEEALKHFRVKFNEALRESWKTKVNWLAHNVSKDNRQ

[7] = biological target: Phosphatidylinositol 4,5-bisphosphate 3-kinase catalytic subunit gamma isoform (Homo sapiens, UniProt P48736); test: Inhibition of human PI3Kgamma by ADP-Glo kinase assay
[8] = biological target: Phosphatidylinositol 4-phosphate 3-kinase C2 domain-containing subunit beta (Homo sapiens, UniProt O00750); test: Inhibition of human PIK3C2beta by ADP-Glo kinase assay
Chain of Phosphatidylinositol 4-phosphate 3-kinase C2 domain-containing subunit beta (O00750 whole entry, the tested form may be a part): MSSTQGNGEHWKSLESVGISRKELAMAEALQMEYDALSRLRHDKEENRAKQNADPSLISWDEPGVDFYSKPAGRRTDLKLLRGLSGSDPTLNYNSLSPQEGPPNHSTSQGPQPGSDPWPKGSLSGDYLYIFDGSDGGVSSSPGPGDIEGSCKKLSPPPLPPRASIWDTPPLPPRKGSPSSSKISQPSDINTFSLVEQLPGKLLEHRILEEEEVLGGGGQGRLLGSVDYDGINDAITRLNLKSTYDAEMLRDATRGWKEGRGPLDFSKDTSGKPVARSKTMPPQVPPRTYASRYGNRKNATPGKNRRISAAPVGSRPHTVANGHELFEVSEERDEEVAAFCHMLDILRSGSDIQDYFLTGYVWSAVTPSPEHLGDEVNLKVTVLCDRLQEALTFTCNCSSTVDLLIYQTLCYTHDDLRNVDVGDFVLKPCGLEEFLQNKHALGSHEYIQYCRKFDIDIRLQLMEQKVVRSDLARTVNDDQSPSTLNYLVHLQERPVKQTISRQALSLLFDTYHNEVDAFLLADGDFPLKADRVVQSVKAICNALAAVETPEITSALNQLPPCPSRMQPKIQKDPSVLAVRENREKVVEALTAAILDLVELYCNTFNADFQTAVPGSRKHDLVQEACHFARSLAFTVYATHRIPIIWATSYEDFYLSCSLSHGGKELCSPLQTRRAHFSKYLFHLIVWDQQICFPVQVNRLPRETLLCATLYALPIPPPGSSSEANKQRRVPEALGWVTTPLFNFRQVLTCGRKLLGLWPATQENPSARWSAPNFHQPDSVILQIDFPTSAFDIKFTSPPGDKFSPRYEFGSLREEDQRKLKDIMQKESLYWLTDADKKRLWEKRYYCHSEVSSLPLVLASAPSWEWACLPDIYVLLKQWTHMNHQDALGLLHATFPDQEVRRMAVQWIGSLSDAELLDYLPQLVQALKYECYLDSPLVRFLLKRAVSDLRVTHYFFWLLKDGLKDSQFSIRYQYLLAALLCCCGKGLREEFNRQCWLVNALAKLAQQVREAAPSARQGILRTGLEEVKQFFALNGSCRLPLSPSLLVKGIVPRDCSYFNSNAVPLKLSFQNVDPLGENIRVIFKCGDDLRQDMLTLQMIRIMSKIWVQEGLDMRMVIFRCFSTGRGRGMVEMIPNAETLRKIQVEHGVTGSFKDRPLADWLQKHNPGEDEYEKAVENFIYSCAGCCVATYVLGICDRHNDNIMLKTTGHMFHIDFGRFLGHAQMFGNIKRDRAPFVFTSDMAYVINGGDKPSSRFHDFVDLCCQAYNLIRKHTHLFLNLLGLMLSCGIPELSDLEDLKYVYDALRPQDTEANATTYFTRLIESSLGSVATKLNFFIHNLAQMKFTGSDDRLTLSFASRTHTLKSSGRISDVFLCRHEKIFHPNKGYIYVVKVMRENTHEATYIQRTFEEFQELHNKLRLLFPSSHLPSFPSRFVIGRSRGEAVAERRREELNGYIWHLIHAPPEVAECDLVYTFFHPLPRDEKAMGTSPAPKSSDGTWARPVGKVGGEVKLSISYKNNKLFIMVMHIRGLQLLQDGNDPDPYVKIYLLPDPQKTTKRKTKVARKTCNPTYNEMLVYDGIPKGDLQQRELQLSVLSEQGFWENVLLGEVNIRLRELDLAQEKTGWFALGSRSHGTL

[9] = biological target: Phosphatidylinositol 3-kinase catalytic subunit type 3 (Homo sapiens, UniProt Q8NEB9); test: Inhibition of human VPS34 by ADP-Glo kinase assay
Chain of Phosphatidylinositol 3-kinase catalytic subunit type 3 (Q8NEB9 whole entry): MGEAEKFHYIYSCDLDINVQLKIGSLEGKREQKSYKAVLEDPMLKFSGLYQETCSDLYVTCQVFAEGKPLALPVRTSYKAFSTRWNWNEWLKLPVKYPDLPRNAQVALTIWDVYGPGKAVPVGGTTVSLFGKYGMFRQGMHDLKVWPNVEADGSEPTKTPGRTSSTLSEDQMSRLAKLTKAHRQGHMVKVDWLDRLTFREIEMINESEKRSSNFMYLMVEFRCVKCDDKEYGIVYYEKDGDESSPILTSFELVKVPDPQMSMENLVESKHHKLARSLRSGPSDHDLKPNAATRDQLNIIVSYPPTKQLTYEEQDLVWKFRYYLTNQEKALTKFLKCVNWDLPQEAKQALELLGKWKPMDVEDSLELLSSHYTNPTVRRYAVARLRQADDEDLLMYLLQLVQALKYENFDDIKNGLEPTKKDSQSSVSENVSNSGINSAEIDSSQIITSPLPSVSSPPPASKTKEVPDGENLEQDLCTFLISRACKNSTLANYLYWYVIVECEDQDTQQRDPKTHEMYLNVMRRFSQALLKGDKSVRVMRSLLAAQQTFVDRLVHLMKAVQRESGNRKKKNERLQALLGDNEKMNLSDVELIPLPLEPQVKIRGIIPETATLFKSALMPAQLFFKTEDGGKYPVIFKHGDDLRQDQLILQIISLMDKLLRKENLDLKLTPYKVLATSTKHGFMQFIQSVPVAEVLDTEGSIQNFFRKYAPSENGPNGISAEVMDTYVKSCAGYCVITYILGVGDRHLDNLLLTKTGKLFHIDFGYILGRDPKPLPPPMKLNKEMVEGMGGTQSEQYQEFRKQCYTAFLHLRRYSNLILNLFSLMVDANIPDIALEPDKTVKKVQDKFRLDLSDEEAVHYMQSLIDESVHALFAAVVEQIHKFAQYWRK

[10] = biological target: Phosphatidylinositol 4-kinase alpha (Homo sapiens, UniProt P42356); test: Inhibition of human PI4K3alpha by ADP-Glo kinase assay
[11] = biological target: Phosphatidylinositol 4-kinase beta (Homo sapiens, UniProt Q9UBF8); test: Inhibition of human PI4K3beta by ADP-Glo kinase assay
Chain of Phosphatidylinositol 4-kinase beta (Q9UBF8 whole entry): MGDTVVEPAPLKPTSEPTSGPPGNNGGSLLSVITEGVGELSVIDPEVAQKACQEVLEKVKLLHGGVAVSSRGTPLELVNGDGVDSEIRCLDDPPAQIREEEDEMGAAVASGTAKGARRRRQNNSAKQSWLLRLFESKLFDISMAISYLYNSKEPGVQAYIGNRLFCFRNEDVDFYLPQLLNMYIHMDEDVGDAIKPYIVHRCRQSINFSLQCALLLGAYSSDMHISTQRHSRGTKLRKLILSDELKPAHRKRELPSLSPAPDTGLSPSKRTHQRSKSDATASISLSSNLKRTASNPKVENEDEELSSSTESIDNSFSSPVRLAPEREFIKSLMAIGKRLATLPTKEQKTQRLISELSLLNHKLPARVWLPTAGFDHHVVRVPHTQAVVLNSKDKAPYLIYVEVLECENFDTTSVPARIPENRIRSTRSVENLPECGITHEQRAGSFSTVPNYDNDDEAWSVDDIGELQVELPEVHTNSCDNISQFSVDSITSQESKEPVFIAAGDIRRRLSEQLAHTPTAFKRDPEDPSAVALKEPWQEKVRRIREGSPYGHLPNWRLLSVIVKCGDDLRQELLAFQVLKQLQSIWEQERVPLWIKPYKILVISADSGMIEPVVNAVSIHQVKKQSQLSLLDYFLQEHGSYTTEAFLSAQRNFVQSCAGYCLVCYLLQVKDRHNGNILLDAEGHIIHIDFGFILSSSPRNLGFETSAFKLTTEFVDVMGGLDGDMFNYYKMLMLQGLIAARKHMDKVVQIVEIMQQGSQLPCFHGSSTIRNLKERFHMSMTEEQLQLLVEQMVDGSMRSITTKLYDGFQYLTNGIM

Plasmodium falciparum [12] = test: Antimalarial activity against artemisinin resistant Plasmodium falciparum 803 infected in human O+ erythrocytes incubated for 72 hrs by SYBR Green 1 dye based fluorescence assay; assay type: functional, organism-based; details: Plasmodium falciparum, 803, Erythrocyte
Plasmodium falciparum [13] = test: Antimalarial activity against artemisinin and piperaquine-phosphate resistant Plasmodium falciparum 6320 infected in human O+ erythrocytes incubated for 72 hrs by SYBR Green 1 dye based fluorescence assay; assay type: functional, organism-based; details: Plasmodium falciparum, 6320, Erythrocyte
Plasmodium falciparum [14] = test: Antimalarial activity against Plasmodium falciparum GB4 infected in human O+ erythrocytes incubated for 72 hrs by SYBR Green 1 dye based fluorescence assay; assay type: functional, organism-based; details: GB4, Erythrocyte
Plasmodium falciparum [15] = test: Antimalarial activity against chloroquine resistant Plasmodium falciparum FAB9 infected in human O+ erythrocytes incubated for 72 hrs by SYBR Green 1 dye based fluorescence assay; assay type: functional, organism-based; details: FAB9, Erythrocyte
Plasmodium falciparum [16] = test: Antimalarial activity against pyrimethamine/chloroquine resistant Plasmodium falciparum C2A infected in human O+ erythrocytes incubated for 72 hrs by SYBR Green 1 dye based fluorescence assay; assay type: functional, organism-based; details: Erythrocyte
Plasmodium falciparum [17] = test: Antimalarial activity against chloroquine resistant Plasmodium falciparum D10 infected in human O+ erythrocytes incubated for 72 hrs by SYBR Green 1 dye based fluorescence assay; assay type: functional, organism-based; details: D10, Erythrocyte
Plasmodium falciparum [18] = test: Antimalarial activity against pyrimethamine/chloroquine resistant Plasmodium falciparum PC26 infected in human O+ erythrocytes incubated for 72 hrs by SYBR Green 1 dye based fluorescence assay; assay type: functional, organism-based; details: PC26, Erythrocyte
Plasmodium falciparum [19] = test: Antimalarial activity against pyrimethamine/chloroquine resistant Plasmodium falciparum CP286 infected in human O+ erythrocytes incubated for 72 hrs by SYBR Green 1 dye based fluorescence assay; assay type: functional, organism-based; details: CP286, Erythrocyte
[20] = Inhibition of human PIK3C2alpha by ADP-Glo kinase assay

## CN(C)[C@H]1CCN(C(=O)c2cncc(-c3cnc(Cl)c(NS(=O)(=O)c4ccccc4)c3)c2)C1
Plasmodium falciparum [1]
  EC50: > 10 µM
[2]
  IC50: > 156 nM

## CNC(=O)c1ccc(-c2cnc3cnc(C(=O)N(C)c4ccc(Cl)cc4)cn23)cc1
Plasmodium falciparum [3]
  EC50: 46.7 nM
Plasmodium falciparum [1]
  EC50: 0.0411 µM
[2]
  IC50: 1.6 nM
[4]
  IC50: > 10 µM
[5]
  IC50: 2730 nM
[6]
  IC50: 3.1 µM
[7]
  IC50: 5.92 µM
[8]
  IC50: > 10 µM
[9]
  IC50: 9.2 µM
[10]
  IC50: 1420 nM
[11]
  IC50: > 10 µM
Plasmodium falciparum [12]
  EC50: 41.8 nM
Plasmodium falciparum [13]
  EC50: 33.6 nM
Plasmodium falciparum [14]
  EC50: 39.2 nM
Plasmodium falciparum [15]
  EC50: 44.8 nM
Plasmodium falciparum [16]
  EC50: 33.7 nM
Plasmodium falciparum [17]
  EC50: 43.9 nM
Plasmodium falciparum [18]
  EC50: 54.9 nM
Plasmodium falciparum [19]
  EC50: 31.9 nM
[20]
  IC50: > 10 µM

## CC(=O)n1ccc2cc(-c3cnc(Cl)c(NS(=O)(=O)c4ccccc4)c3)cnc21
Plasmodium falciparum [1]
  EC50: 1.05 µM
[2]
  IC50: 8.1 nM

## CCCS(=O)(=O)Nc1cc(-c2cncc(C(=O)NC)c2)cnc1Cl
Plasmodium falciparum [1]
  EC50: 0.48 µM
[2]
  IC50: 13.2 nM

## CCNC(=O)c1cncc(-c2cnc(Cl)c(NS(=O)(=O)c3ccccc3)c2)c1
Plasmodium falciparum [1]
  EC50: 0.12 µM
[2]
  IC50: 2.3 nM

## CCS(=O)(=O)Nc1cc(-c2cncc(C(=O)NC)c2)cnc1Cl
Plasmodium falciparum [1]
  EC50: 3.5 µM
[2]
  IC50: 52.6 nM

## O=C(Nc1cccc(F)c1)c1cncc(-c2cnc(Cl)c(NS(=O)(=O)c3ccccc3)c2)c1
Plasmodium falciparum [1]
  EC50: > 10 µM
[2]
  IC50: > 156 nM

## NCCNC(=O)c1cncc(-c2cnc(Cl)c(NS(=O)(=O)c3ccccc3)c2)c1
Plasmodium falciparum [1]
  EC50: 0.13 µM
[2]
  IC50: 13.8 nM

## CNC(=O)c1cncc(-c2cnc(Cl)c(NS(=O)(=O)c3ccc(C(F)(F)F)cc3)c2)c1
Plasmodium falciparum [1]
  EC50: 0.13 µM
[2]
  IC50: > 156 nM

## CNC(=O)c1cncc(-c2cnc(Cl)c(NS(=O)(=O)c3ccc(C)cc3)c2)c1
Plasmodium falciparum [1]
  EC50: 0.039 µM
[2]
  IC50: 1.2 nM

## CNC(=O)c1cncc(-c2cnc(Cl)c(NS(=O)(=O)c3ccc4c(c3)CCO4)c2)c1
Plasmodium falciparum [1]
  EC50: 0.34 µM
[2]
  IC50: 4.5 nM

## CNC(=O)c1cncc(-c2cnc(Cl)c(NS(=O)(=O)c3ccc(C)cc3C)c2)c1
Plasmodium falciparum [1]
  EC50: 0.039 µM
[2]
  IC50: 2.2 nM

## CNC(=O)c1cncc(-c2cnc(Cl)c(NS(=O)(=O)c3ccc(Cl)cc3Cl)c2)c1
Plasmodium falciparum [1]
  EC50: 0.12 µM
[2]
  IC50: 1.2 nM

## O=S(=O)(Nc1cc(-c2cccnc2)cnc1Cl)c1ccccc1
Plasmodium falciparum [1]
  EC50: 4.71 µM
[2]
  IC50: 12.7 nM

## C[C@H](CN)NC(=O)c1cncc(-c2cnc(Cl)c(NS(=O)(=O)c3ccccc3)c2)c1
Plasmodium falciparum [1]
  EC50: > 10 µM
[2]
  IC50: > 40 nM

## O=S(=O)(Nc1cc(-c2ccncc2)cnc1Cl)c1ccccc1
Plasmodium falciparum [1]
  EC50: > 10 µM
[2]
  IC50: > 156 nM

## O=S(=O)(Nc1cc(-c2cnc3[nH]ccc3c2)cnc1Cl)c1ccccc1
Plasmodium falciparum [1]
  EC50: 3.94 µM
[2]
  IC50: 7.7 nM

## CNC(=O)c1cncc(-c2cnc(Cl)c(NS(=O)(=O)c3cccc(-c4ccccc4)c3)c2)c1
Plasmodium falciparum [1]
  EC50: 7.7 µM
[2]
  IC50: 7.5 nM

## O=C(Nc1ccccc1)c1cncc(-c2cnc(Cl)c(NS(=O)(=O)c3ccccc3)c2)c1
Plasmodium falciparum [1]
  EC50: 3.68 µM
[2]
  IC50: 145 nM

## CNC(=O)c1cncc(-c2cnc(Cl)c(NS(=O)(=O)c3ccc(Cl)cc3)c2)c1
Plasmodium falciparum [1]
  EC50: 0.071 µM
[2]
  IC50: 1.6 nM

## CNC(=O)c1cncc(-c2cnc(Cl)c(NS(=O)(=O)c3cccc(C(F)(F)F)c3)c2)c1
Plasmodium falciparum [1]
  EC50: 3.5 µM
[2]
  IC50: 2.5 nM

## O=C(NCc1ccccc1)c1cncc(-c2cnc(Cl)c(NS(=O)(=O)c3ccccc3)c2)c1
Plasmodium falciparum [1]
  EC50: 3.57 µM
[2]
  IC50: 8.5 nM

## Cn1cc(-c2cnc(Cl)c(NS(=O)(=O)c3ccccc3)c2)cn1
Plasmodium falciparum [1]
  EC50: 1.49 µM
[2]
  IC50: 10 nM

## O=C(Nc1ccc(F)cc1)c1cncc(-c2cnc(Cl)c(NS(=O)(=O)c3ccccc3)c2)c1
Plasmodium falciparum [1]
  EC50: > 10 µM
[2]
  IC50: > 156 nM

## CNC(=O)c1cncc(-c2cnc(Cl)c(NC(=O)c3ccccc3)c2)c1
Plasmodium falciparum [1]
  EC50: > 10 µM
[2]
  IC50: > 156 nM

## CNC(=O)c1cncc(-c2cnc(Cl)c(NS(=O)(=O)c3ccc(F)cc3F)c2)c1
Plasmodium falciparum [1]
  EC50: 3.4 µM
[2]
  IC50: 0.4 nM

## CNC(=O)c1cncc(-c2cnc(Cl)c(NS(=O)(=O)c3ccccc3C(F)(F)F)c2)c1
Plasmodium falciparum [1]
  EC50: 0.087 µM
[2]
  IC50: 0.5 nM

## CNC(=O)c1cc(-c2cnc(Cl)c(NS(=O)(=O)c3ccccc3)c2)ccn1
Plasmodium falciparum [1]
  EC50: > 10 µM
[2]
  IC50: > 156 nM

## CNC(=O)c1cccc(-c2cnc(Cl)c(NS(=O)(=O)c3ccccc3)c2)c1
Plasmodium falciparum [1]
  EC50: > 10 µM
[2]
  IC50: > 156 nM

## O=S(=O)(Nc1cc(-c2cnc3[nH]ncc3c2)cnc1Cl)c1ccccc1
Plasmodium falciparum [1]
  EC50: 4.67 µM
[2]
  IC50: 5.6 nM

## CNC(=O)c1cc(-c2cnc(Cl)c(NS(=O)(=O)c3ccccc3)c2)c[nH]1
Plasmodium falciparum [1]
  EC50: > 10 µM
[2]
  IC50: > 156 nM

## CNC(=O)c1cncc(-c2cnc(Cl)c(NS(=O)(=O)c3ccc(-c4ccccc4)cc3)c2)c1
Plasmodium falciparum [1]
  EC50: 5.88 µM
[2]
  IC50: 8.8 nM
